In patent US20100144700A1, “HETEROCYCLIC-CARBONYL-DIAZABICYCLOALKANES AS MODULATORS OF THE NEURONAL NICOTINIC ACETYLCHOLINE ALPHA 4 BETA 2, SUBTYPE RECEPTOR FOR THE TREATMENT OF CNS RELATED DISORDERS” (TARGACEPT, INC., priority 2007, published 2010):
Where two headings read alike, the source gives them in different places.

Key:
Human α4β2 = Human α4β2 (Homo sapiens, UniProt P17787+P43681); assay: Binding at human α4β2 subtype (Table 1)
α7 nAChR Subtype = molecular target: T1, α7 nAChR Subtype (Rattus norvegicus, UniProt Q05941); assay: Radioligand binding ([3H]MLA) at α7 nAChR subtype, rat hippocampus membranes; HTS at 5 μM; settings: for inhibition at 5 µM: 5 μM compound, 5 nM 3H-MLA, read-out: α7 high throughput screening (HTS) binding
T1 construct: The hippocampus was removed and placed in 10 volumes (weight:volume) of ice-cold preparative buffer; from tissue; host or cells: rat hippocampus membranes
T1 sequence (Q05941 23-502): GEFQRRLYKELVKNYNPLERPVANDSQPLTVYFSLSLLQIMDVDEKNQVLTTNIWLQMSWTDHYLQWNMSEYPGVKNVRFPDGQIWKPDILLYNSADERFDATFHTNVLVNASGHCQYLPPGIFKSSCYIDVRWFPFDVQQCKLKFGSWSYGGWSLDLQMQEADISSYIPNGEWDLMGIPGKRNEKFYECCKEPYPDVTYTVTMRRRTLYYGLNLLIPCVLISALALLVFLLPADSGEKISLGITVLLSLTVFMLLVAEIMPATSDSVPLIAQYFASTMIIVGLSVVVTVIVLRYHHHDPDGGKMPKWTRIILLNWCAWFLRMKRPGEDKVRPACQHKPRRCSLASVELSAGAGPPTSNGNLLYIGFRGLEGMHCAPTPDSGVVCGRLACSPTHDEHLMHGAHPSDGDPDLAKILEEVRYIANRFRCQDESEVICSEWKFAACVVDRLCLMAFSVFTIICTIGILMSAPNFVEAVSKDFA
Experimental: Rats (female, Sprague-Dawley), weighing 150-250 g, were maintained on a 12 h light/dark cycle and were allowed free access to water and food supplied by PMI Nutrition International, Inc. Animals were anesthetized with 70% CO2, then decapitated. Brains were removed and placed on an ice-cold platform. The hippocampus was removed and placed in 10 volumes (weight:volume) of ice-cold preparative buffer (137 mM NaCl, 10.7 mM KCl, 5.8 mM KH2PO4, 8 mM Na2HPO4, 20 mM HEPES (free acid), 5 mM iodoacetamide, 1.6 mM EDTA, pH 7.4); PMSF, dissolved in methanol to a final concentration of 100 μM, was added and the tissue suspension was homogenized by Polytron. The homogenate was centrifuged at 18,000×g for 20 min at 4° C. and the resulting pellet was re-suspended in 10 volumes of ice-cold water. After 60 min incubation on ice, a new pellet was collected by centrifugation at 18,000×g for 20 min at 4° C. The final pellet was re-suspended in 10 volumes of buffer and stored at −20° C. On the day of the assay, tissue was thawed, centrifuged at 18,000×g for 20 min, and then re-suspended in ice-cold PBS (Dulbecco's Phosphate Buffered Saline, 138 mM NaCl, 2.67 mM KCl, 1.47 mM KH2PO4, 8.1 mM Na2HPO4, 0.9 mM CaCl2, 0.5 mM MgCl2, Invitrogen/Gibco, pH 7.4) to a final concentration of approximately 2 mg protein/mL. Protein was determined by the method of Lowry et al., J. Biol. Chem. 193: 265 (1951), using bovine serum albumin as the standard.
The binding of [^3H]MLA was measured using a modification of the methods of Davies et al., Neuropharmacol. 38: 679 (1999). [^3H]MLA (Specific Activity=25-35 Ci/mmol) was obtained from Tocris. The binding of [^3H]MLA was determined using a 2 h incubation at 21° C. Incubations were conducted in 48-well micro-titre plates and contained about 200 μg of protein per well in a final incubation volume of 300 μL. The incubation buffer was PBS and the final concentration of [^3H]MLA was 5 nM. The binding reaction was terminated by filtration of the protein containing bound ligand onto glass fiber filters (GF/B, Brandel) using a Brandel Tissue Harvester at room temperature. Filters were soaked in de-ionized water containing 0.33% polyethyleneimine to reduce non-specific binding. Each filter was washed with PBS (3×1 mL) at room temperature. Non-specific binding was determined by inclusion of 50 μM non-radioactive MLA in selected wells.
[…] Each concentration was replicated in triplicate. […] […] Pharmacol. 22: 3099-3108 (1973).

α4β2 nAChR Subtype = molecular target: T2, α4β2 nAChR Subtype (Rattus norvegicus, UniProt P09483+P12390); assay: Radioligand binding ([3H]nicotine) at rat α4β2 nAChR subtype, rat cerebral cortex membranes
T2 construct: The cerebral cortex was removed and placed in 20 volumes (weight:volume) of ice-cold preparative buffer; from tissue; host or cells: rat cerebral cortex membranes
T2 sequence (P09483 31-630): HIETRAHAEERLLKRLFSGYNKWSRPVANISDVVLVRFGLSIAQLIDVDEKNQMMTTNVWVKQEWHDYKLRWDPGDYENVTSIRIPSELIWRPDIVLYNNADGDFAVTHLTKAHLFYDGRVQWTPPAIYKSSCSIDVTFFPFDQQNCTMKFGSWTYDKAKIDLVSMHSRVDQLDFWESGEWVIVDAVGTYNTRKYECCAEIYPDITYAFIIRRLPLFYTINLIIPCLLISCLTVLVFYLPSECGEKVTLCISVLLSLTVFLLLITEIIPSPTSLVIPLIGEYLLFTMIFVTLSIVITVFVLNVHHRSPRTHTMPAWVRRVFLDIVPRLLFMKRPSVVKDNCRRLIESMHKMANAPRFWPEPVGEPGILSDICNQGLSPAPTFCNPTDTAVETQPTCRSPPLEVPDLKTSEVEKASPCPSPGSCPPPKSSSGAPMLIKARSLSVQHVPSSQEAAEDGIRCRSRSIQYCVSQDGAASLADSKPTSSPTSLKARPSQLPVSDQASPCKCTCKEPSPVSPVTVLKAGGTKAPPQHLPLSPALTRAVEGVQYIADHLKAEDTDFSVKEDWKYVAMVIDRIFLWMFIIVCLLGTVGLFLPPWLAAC
T2 sequence (P12390 25-500): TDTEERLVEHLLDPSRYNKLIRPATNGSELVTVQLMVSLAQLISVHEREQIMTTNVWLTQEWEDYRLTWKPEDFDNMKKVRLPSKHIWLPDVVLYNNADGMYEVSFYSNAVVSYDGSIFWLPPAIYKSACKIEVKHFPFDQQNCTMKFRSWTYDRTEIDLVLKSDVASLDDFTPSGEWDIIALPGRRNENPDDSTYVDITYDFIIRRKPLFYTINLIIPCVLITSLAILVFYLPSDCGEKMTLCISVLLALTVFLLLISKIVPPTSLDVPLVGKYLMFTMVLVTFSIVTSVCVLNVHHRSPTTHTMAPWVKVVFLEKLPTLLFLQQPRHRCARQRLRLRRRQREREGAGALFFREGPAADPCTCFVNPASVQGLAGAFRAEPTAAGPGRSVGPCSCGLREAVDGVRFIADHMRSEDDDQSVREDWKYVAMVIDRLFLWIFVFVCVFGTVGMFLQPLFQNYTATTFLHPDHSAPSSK
Experimental: Rats (female, Sprague-Dawley), weighing 150-250 g, were maintained on a 12 h light/dark cycle and were allowed free access to water and food supplied by PMI Nutrition International, Inc. Animals were anesthetized with 70% CO2, then decapitated. Brains were removed and placed on an ice-cold platform. The cerebral cortex was removed and placed in 20 volumes (weight:volume) of ice-cold preparative buffer (137 mM NaCl, 10.7 mM KCl, 5.8 mM KH2PO4, 8 mM Na2HPO4, 20 mM HEPES (free acid), 5 mM iodoacetamide, 1.6 mM EDTA, pH 7.4); PMSF, dissolved in methanol to a final concentration of 100 μM, was added and the suspension was homogenized by Polytron. The homogenate was centrifuged at 18,000×g for 20 min at 4° C. and the resulting pellet was re-suspended in 20 volumes of ice-cold water. After 60 min incubation on ice, a new pellet was collected by centrifugation at 18,000×g for 20 min at 4° C. The final pellet was re-suspended in 10 volumes of buffer and stored at −20° C. On the day of the assay, tissue was thawed, centrifuged at 18,000×g for 20 min, and then re-suspended in ice-cold PBS (Dulbecco's Phosphate Buffered Saline, 138 mM NaCl, 2.67 mM KCl, 1.47 mM KH2PO4, 8.1 mM Na2HPO4, 0.9 mM CaCl2, 0.5 mM MgCl2, Invitrogen/Gibco, pH 7.4) to a final concentration of approximately 4 mg protein/mL. Protein was determined by the method of Lowry et al., J. Biol. Chem. 193: 265 (1951), using bovine serum albumin as the standard.
The binding of [^3H]nicotine was measured using a modification of the methods of Romano et al., Science 210: 647 (1980) and Marks et al., Mol. Pharmacol. 30: 427 (1986). The [^3H]nicotine (Specific Activity=81.5 Ci/mmol) was obtained from NEN Research Products. The binding of [^3H]nicotine was measured using a 3 h incubation at 4° C. Incubations were conducted in 48-well micro-titre plates and contained about 400 μg of protein per well in a final incubation volume of 300 μL. The incubation buffer was PBS and the final concentration of [^3H]nicotine was 5 nM. The binding reaction was terminated by filtration of the protein containing bound ligand onto glass fiber filters (GF/B, Brandel) using a Brandel Tissue Harvester at 4° C. Filters were soaked in de-ionized water containing 0.33% polyethyleneimine to reduce non-specific binding. Each filter was washed with ice-cold buffer (3×1 mL). Non-specific binding was determined by inclusion of 10 μM non-radioactive L-nicotine (Acros Organics) in selected wells.
The inhibition of [^3H]nicotine binding by test compounds was determined by including seven different concentrations of the test compound in selected wells. Each concentration was replicated in triplicate. IC50 values were estimated as the concentration of compound that inhibited 50 percent of specific [^3H]nicotine binding. Inhibition constants (Ki values), reported in nM, were calculated from the IC50 values using the method of Cheng et al., Biochem. Pharmacol. 22: 3099 (1973).

[1] = [3H]nicotine 5 nM, rat cortex, read-out: Rat α4β2 Ki

Sequence of Human α4β2 (P43681 29-627 limits assumed): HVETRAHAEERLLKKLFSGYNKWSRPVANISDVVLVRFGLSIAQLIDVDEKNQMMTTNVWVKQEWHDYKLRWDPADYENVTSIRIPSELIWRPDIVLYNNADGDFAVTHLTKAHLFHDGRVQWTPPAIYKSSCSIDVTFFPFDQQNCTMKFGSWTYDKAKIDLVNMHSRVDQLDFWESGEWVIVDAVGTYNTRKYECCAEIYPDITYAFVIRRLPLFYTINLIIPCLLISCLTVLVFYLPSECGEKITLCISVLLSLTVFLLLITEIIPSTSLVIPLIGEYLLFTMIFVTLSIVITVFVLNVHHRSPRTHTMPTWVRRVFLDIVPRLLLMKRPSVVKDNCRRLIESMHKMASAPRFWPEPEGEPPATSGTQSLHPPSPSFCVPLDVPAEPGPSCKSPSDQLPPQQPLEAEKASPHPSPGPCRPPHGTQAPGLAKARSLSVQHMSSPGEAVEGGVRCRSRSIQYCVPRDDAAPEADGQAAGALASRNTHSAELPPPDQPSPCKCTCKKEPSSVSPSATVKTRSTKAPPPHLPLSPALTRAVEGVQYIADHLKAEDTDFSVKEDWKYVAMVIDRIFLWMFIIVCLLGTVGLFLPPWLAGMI
Sequence of Human α4β2 (P17787 26-502): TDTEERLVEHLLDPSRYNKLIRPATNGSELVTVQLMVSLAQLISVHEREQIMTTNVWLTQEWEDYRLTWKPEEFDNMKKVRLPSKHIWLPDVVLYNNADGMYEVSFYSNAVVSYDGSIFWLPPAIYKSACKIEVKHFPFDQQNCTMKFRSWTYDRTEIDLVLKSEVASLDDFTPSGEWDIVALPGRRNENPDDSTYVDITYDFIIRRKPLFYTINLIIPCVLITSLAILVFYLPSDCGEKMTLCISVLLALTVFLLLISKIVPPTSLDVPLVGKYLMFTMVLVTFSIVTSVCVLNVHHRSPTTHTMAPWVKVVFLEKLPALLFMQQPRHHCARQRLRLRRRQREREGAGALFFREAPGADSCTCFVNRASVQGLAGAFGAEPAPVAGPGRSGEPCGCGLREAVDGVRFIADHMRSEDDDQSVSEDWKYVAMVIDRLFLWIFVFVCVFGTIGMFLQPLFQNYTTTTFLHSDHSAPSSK

Compound | Ki (Human α4β2; read-out: Human α4β2 Ki) | inhibition at 5 µM (α7 nAChR Subtype) | Ki (α4β2 nAChR Subtype) | Ki (Human α4β2) | Ki (α4β2 nAChR Subtype; [1]) | Ki (α7 nAChR Subtype; [3H]MLA 5 nM, rat hippocampus)
O=C(c1ccco1)N1CC2CNC(C2)C1 (stereo not drawn) | 23.9 nM | ≤ 50% | 19.2 nM | – | – | –
O=C(c1ccncc1)N1CC2CNC(C2)C1 (stereo not drawn) | 29.7 nM | ≤ 50% | – | – | – | –
O=C(c1ccco1)N1CC2CNCC1C2 (stereo not drawn) | 217 nM | ≤ 50% | – | – | – | –
O=C(c1ccc(Br)o1)N1CC2CNC(C2)C1 (stereo not drawn) | 0.8 nM | ≤ 50% | 14.5 nM | – | – | –
Cc1ccoc1C(=O)N1CC2CNC(C2)C1 (stereo not drawn) | 3.4 nM | ≤ 50% | – | – | – | –
O=C(c1cccnc1)N1CC2CNC(C2)C1 (stereo not drawn) | 359 nM | ≤ 50% | – | – | – | –
O=C(c1cc(Br)no1)N1CC2CNC(C2)C1 (stereo not drawn) | 2.8 nM | ≤ 50% | 3.4 nM | – | – | –
COc1cc(C(=O)N2CC3CNC(C3)C2)on1 (stereo not drawn) | 3.7 nM | ≤ 50% | 5 nM | – | – | –
Cc1ccoc1C(=O)N1CC2CNCC1C2 (stereo not drawn) | – | ≤ 50% | – | 95.2 nM | 139 nM | –
O=C(c1ccncc1)N1CC2CNCC1C2 (stereo not drawn) | 132 nM | ≤ 50% | – | – | 317 nM | –
O=C(c1cc(Br)no1)N1CC2CNCC1C2 (stereo not drawn) | – | ≤ 50% | – | 14.3 nM | 172 nM | –
COc1cc(C(=O)N2CC3CNCC2C3)on1 (stereo not drawn) | 306 nM | ≤ 50% | – | – | 195 nM | –
O=C(c1ccco1)N1C[C@@H]2CN[C@@H](C2)C1 | 16.9 nM | – | 40.9 nM | – | – | 1020 nM
COc1cc(C(=O)N2C[C@@H]3CN[C@@H](C3)C2)on1 | – | ≤ 50% | – | 95.4 nM | 367 nM | –
O=C(c1ccco1)N1C[C@H]2CN[C@H](C2)C1 | 13.1 nM | ≤ 50% | 10.8 nM | – | – | –
O=C(c1ccc(Br)o1)N1C[C@H]2CN[C@H](C2)C1 | 6.8 nM | ≤ 50% | 14.4 nM | – | – | –
O=C(c1cc(Br)no1)N1C[C@H]2CN[C@H](C2)C1 | 1.8 nM | ≤ 50% | 3.5 nM | – | – | –
Cc1occc1C(=O)N1C[C@H]2CN[C@H](C2)C1 | 10.9 nM | ≤ 50% | 17.3 nM | – | – | –
O=C(c1ccc(Cl)o1)N1C[C@@H]2CN[C@@H](C2)C1 | 27.1 nM | ≤ 50% | 39.6 nM | – | – | –
Cc1cc(C(=O)N2C[C@@H]3CN[C@@H](C3)C2)no1 | 503 nM | ≤ 50% | – | – | 853 nM | –
O=C(c1ccno1)N1C[C@@H]2CN[C@@H](C2)C1 | 34.5 nM | ≤ 50% | 26.8 nM | – | – | –
O=C(c1cnco1)N1C[C@@H]2CN[C@@H](C2)C1 | 85.2 nM | ≤ 50% | 70.1 nM | – | – | –

Compound | Ki (Human α4β2; read-out: Human α4β2 Ki) | inhibition at 5 µM (α7 nAChR Subtype) | Ki (α4β2 nAChR Subtype) | Ki (Human α4β2) | Ki (α4β2 nAChR Subtype; [1]) | Ki (α7 nAChR Subtype; [3H]MLA 5 nM, rat hippocampus)
O=C(c1ccc(F)o1)N1C[C@H]2CN[C@H](C2)C1 | 6.9 nM | ≤ 50% | 8.5 nM | – | – | –
O=C(c1ccoc1)N1C[C@H]2CN[C@H](C2)C1 | 10.5 nM | ≤ 50% | 10.6 nM | – | – | –
Cc1nocc1C(=O)N1C[C@H]2CN[C@H](C2)C1 | 54.9 nM | ≤ 50% | 56.7 nM | – | – | –
Cc1ncoc1C(=O)N1C[C@H]2CN[C@H](C2)C1 | 4.6 nM | ≤ 50% | 8.9 nM | – | – | –
Cc1cc(C(=O)N2C[C@H]3CN[C@H](C3)C2)no1 | 17.1 nM | ≤ 50% | 14.8 nM | – | – | –
O=C(c1ccno1)N1C[C@H]2CN[C@H](C2)C1 | 11.4 nM | ≤ 50% | 10.2 nM | – | – | –
O=C(c1cccs1)N1C[C@H]2CN[C@H](C2)C1 | 7.2 nM | ≤ 50% | 5.9 nM | – | – | –
O=C(c1cnco1)N1C[C@H]2CN[C@H](C2)C1 | 14 nM | ≤ 50% | 13 nM | – | – | –
Cc1cc(C(=O)N2C[C@@H]3CN[C@@H](C3)C2)on1 | – | ≤ 50% | – | 76.1 nM | 104 nM | –
O=C(c1ccc(F)o1)N1C[C@@H]2CN[C@@H](C2)C1 | 14.5 nM | ≤ 50% | 9.3 nM | – | – | –
Cc1coc(C(=O)N2C[C@@H]3CN[C@@H](C3)C2)c1 | 51.6 nM | ≤ 50% | 29.4 nM | – | – | –
O=C(c1cc(Cl)co1)N1C[C@@H]2CN[C@@H](C2)C1 | 41.4 nM | ≤ 50% | 31.2 nM | – | – | –
N#Cc1coc(C(=O)N2C[C@@H]3CN[C@@H](C3)C2)c1 | 48.6 nM | ≤ 50% | 23.6 nM | – | – | –
CC(C)c1cc(C(=O)N2C[C@@H]3CN[C@@H](C3)C2)on1 | 724 nM | ≤ 50% | – | – | 470 nM | –
O=C(c1ccco1)N1CCC2CNCC21 (stereo not drawn) | 851 nM | ≤ 50% | – | – | 599 nM | –
O=C(c1ccco1)N1CC2CCNC2C1 (stereo not drawn) | 789 nM | ≤ 50% | – | – | 832 nM | –
Cc1nocc1C(=O)N1CC2CCNCC2C1 (stereo not drawn) | 892 nM | ≤ 50% | – | – | 882 nM | –
Cc1ncoc1C(=O)N1CC2CCNCC2C1 (stereo not drawn) | 213 nM | ≤ 50% | – | – | 952 nM | –
Cc1nocc1C(=O)N1CC2CCNC2C1 (stereo not drawn) | 639 nM | ≤ 50% | – | – | 222 nM | –
Cc1ncoc1C(=O)N1CCC2NCC2C1 (stereo not drawn) | 792 nM | ≤ 50% | – | – | – | –
Cc1ncoc1C(=O)N1CC2CNCCC21 (stereo not drawn) | 515 nM | ≤ 50% | – | – | – | –
O=C(c1ccc(Br)o1)N1C[C@@H]2CN[C@@H](C2)C1 [drawing 16] | 42.9 nM | ≤ 50% | 38.5 nM | – | – | –
